Read-outs that look alike come from different tables or passages of the source.
Legend:
[1] = test system: Loblolly pine megagametophytes
Method: As in Example 9, the explants in this experiment were megagametophytes, containing Stage 2-4 somatic embryos, excised from the open pollinated summer cones of four different genotypes of Loblolly pine. Megagametophytes were isolated as in Example 4 and put on initiation media #889 (Table 47). The experiment consisted of three replications per treatment, per cone collection. Replications consisted of ten explants in adjacent wells on a single well plate. Plates were wrapped in […] and incubated in the dark at 23-24° C.
Explants were cultured on solid media under atmospheres containing three levels of oxygen: normal air (21% oxygen), 30% oxygen and 50% oxygen. All oxygen treatments were applied at either normal atmospheric pressure or under an elevated pressure of 1.5 atmospheres.
After eight weeks, extrusion and initiation were scored, as described in Example 3.

loblolly pine = settings: silver nitrate at about 29-59 μM; cited from earlier work
[2] = genotype 5-1036, 30% Oxygen + Pressure
[3] = genotype 5-1036, 50% Oxygen + Pressure
[4] = genotype 11-1057, 30% Oxygen + Pressure
[5] = genotype 11-1057, 50% Oxygen + Pressure
[6] = genotype 18-120, 30% Oxygen + Pressure
[7] = genotype 18-120, 50% Oxygen + Pressure
[8] = genotype 18-1212, 30% Oxygen + Pressure
[9] = genotype 18-1212, 50% Oxygen + Pressure

O=O [Oxygen]
% Megagametophytes Extruding ([1]; Total, 30% Oxygen): 45.3%
% Megagametophytes Initiating ([1]; Total, 30% Oxygen): 5.9%
% Megagametophytes Extruding ([1]; Total, 30% Oxygen + Pressure): 53.2%
% Megagametophytes Initiating ([1]; Total, 30% Oxygen + Pressure): 7.6%
% Megagametophytes Extruding ([1]; Total, 50% Oxygen): 49.8%
% Megagametophytes Initiating ([1]; Total, 50% Oxygen): 11.1%
% Megagametophytes Extruding ([1]; Total, 50% Oxygen + Pressure): 56.9%
% Megagametophytes Initiating ([1]; Total, 50% Oxygen + Pressure): 8.6%
% Megagametophytes Extruding ([1]; genotype 5-1036, 30% Oxygen): 57.5 (3.8) %
% Megagametophytes Initiating ([1]; genotype 5-1036, 30% Oxygen): 3.3 (3.3) %
% Megagametophytes Extruding [1, 2]: 73.3 (8.8) %
% Megagametophytes Initiating [1, 2]: 13.3 (3.3) %
% Megagametophytes Extruding ([1]; genotype 5-1036, 50% Oxygen): 50.0 (10.0) %
% Megagametophytes Initiating ([1]; genotype 5-1036, 50% Oxygen): 20.0 (5.8) %
% Megagametophytes Extruding [1, 3]: 83.3 (3.3) %
% Megagametophytes Initiating [1, 3]: 13.3 (3.3) %
% Megagametophytes Extruding ([1]; genotype 11-1057, 30% Oxygen): 30.0 (15.3) %
% Megagametophytes Initiating ([1]; genotype 11-1057, 30% Oxygen): 10.0 (0.0) %
% Megagametophytes Extruding [1, 4]: 34.4 (16.1) %
% Megagametophytes Initiating [1, 4]: 6.7 (67) %
% Megagametophytes Extruding ([1]; genotype 11-1057, 50% Oxygen): 53.3 (3.3) %
% Megagametophytes Initiating ([1]; genotype 11-1057, 50% Oxygen): 13.0 (3.3) %
% Megagametophytes Extruding [1, 5]: 43.3 (3.3) %
% Megagametophytes Initiating [1, 5]: 10.0 (5.8) %
% Megagametophytes Extruding ([1]; genotype 18-120, 30% Oxygen): 33.3 (19.2) %
% Megagametophytes Initiating ([1]; genotype 18-120, 30% Oxygen): 0.0 (0.0) %
% Megagametophytes Extruding [1, 6]: 16.7 (8.8) %
% Megagametophytes Initiating [1, 6]: 6.7 (6.7) %
% Megagametophytes Extruding ([1]; genotype 18-120, 50% Oxygen): 40.0 (10.0) %
% Megagametophytes Initiating ([1]; genotype 18-120, 50% Oxygen): 0.0 (0.0) %
% Megagametophytes Extruding [1, 7]: 30.8 (3.6) %
% Megagametophytes Initiating [1, 7]: 4.2 (4.2) %
% Megagametophytes Extruding ([1]; genotype 18-1212, 30% Oxygen): 60.3 (8.0) %
% Megagametophytes Initiating ([1]; genotype 18-1212, 30% Oxygen): 10.4 (5.8) %
% Megagametophytes Extruding [1, 8]: 88.4 (6.5) %
% Megagametophytes Initiating [1, 8]: 3.7 (3.7) %
% Megagametophytes Extruding ([1]; genotype 18-1212, 50% Oxygen): 56.0 (3.6) %
% Megagametophytes Initiating ([1]; genotype 18-1212, 50% Oxygen): 11.2 (0.7) %
% Megagametophytes Extruding [1, 9]: 70.0 (15.3) %
% Megagametophytes Initiating [1, 9]: 10.0 (5.8) %

O=[N+]([O-])[O-].[Ag+] [silver nitrate]
embryogenic culture initiation (loblolly pine): improved embryogenic culture initiation

Reference: patent US6492174B1, “Methods of initiating embryogenic cultures in plants” (Institute of Paper Science & Technology, priority 2000, dated 2002)
